Tests used:
[1] = target: Sodium-dependent dopamine transporter (Homo sapiens, UniProt Q01959)
[2] = target: 5-hydroxytryptamine receptor 2B (Homo sapiens, UniProt P41595); type: functional, cell-based
Mu-type opioid receptor = Mu-type opioid receptor (Homo sapiens, UniProt P35372)
[3] = target: T1, Alpha-1A adrenergic receptor (Homo sapiens, UniProt P35348); type: functional, cell-based
T1 sequence (P35348 whole entry): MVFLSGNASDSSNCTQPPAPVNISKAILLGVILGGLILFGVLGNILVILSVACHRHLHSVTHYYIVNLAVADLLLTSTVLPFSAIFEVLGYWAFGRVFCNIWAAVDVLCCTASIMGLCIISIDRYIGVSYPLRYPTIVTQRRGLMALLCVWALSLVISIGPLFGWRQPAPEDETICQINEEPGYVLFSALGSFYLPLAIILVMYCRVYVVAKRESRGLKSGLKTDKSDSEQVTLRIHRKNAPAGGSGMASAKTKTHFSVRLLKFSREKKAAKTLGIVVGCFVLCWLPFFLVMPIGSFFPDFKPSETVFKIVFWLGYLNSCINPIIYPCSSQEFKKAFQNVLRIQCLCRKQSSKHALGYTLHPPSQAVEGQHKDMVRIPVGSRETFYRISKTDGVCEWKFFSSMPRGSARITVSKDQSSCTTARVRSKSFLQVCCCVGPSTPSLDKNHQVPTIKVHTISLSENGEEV

Progesterone receptor = target: T2, Progesterone receptor (Homo sapiens, UniProt P06401)
T2 sequence (P06401 whole entry): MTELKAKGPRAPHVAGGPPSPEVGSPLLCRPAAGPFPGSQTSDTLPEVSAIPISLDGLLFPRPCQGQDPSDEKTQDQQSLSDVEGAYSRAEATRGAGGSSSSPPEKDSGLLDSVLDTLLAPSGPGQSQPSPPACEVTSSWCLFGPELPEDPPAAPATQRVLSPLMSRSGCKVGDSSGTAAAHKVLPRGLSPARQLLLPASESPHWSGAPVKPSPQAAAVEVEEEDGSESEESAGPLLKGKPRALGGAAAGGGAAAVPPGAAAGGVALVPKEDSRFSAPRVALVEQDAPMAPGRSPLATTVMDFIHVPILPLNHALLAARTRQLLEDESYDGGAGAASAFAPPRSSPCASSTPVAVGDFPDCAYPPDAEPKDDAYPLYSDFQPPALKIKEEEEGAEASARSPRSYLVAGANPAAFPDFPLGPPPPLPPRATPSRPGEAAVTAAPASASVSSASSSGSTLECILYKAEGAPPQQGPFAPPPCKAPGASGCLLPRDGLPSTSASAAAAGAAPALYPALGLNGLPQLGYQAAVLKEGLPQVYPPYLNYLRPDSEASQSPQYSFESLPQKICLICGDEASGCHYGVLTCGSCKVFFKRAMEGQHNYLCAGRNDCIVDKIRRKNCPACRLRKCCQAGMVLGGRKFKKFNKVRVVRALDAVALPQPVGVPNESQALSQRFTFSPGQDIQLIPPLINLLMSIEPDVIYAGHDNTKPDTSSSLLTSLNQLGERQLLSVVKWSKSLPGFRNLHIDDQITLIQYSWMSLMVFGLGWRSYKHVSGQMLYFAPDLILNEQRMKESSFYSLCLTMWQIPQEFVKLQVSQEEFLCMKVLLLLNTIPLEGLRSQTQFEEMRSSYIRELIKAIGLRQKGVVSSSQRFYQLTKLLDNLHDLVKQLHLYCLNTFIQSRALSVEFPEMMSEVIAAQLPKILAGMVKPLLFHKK

[4] = target: T1, Alpha-1A adrenergic receptor; type: functional, cell-based; remark: listed apart in the source
Adenosine receptor A3 = target: T3, Adenosine receptor A3 (Homo sapiens, UniProt P0DMS8)
T3 sequence (P0DMS8 whole entry): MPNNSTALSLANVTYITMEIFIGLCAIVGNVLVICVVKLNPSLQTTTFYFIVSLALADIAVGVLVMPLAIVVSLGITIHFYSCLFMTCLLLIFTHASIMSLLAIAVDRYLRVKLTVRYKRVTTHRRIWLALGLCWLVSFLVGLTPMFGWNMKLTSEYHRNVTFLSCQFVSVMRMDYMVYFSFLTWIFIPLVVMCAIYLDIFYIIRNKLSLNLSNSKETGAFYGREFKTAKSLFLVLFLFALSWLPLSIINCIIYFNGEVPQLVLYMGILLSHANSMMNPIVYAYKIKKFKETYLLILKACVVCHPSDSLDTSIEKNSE

Histamine H3 receptor = Histamine H3 receptor (Homo sapiens, UniProt Q9Y5N1)
Thromboxane A2 receptor = target: T4, Thromboxane A2 receptor (Homo sapiens, UniProt P21731); type: functional, cell-based
T4 sequence (P21731 whole entry): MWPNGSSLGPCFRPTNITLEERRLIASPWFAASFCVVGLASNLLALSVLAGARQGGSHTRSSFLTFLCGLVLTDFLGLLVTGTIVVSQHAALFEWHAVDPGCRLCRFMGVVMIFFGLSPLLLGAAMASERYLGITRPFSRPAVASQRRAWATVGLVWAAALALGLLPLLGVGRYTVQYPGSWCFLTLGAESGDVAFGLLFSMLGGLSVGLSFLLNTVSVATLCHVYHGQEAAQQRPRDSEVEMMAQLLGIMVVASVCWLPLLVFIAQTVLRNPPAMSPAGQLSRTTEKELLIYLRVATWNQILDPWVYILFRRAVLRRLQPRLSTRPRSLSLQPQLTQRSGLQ
Also: assay procedure not described here.

Histamine H3 receptor, sequence (Q9Y5N1 whole entry): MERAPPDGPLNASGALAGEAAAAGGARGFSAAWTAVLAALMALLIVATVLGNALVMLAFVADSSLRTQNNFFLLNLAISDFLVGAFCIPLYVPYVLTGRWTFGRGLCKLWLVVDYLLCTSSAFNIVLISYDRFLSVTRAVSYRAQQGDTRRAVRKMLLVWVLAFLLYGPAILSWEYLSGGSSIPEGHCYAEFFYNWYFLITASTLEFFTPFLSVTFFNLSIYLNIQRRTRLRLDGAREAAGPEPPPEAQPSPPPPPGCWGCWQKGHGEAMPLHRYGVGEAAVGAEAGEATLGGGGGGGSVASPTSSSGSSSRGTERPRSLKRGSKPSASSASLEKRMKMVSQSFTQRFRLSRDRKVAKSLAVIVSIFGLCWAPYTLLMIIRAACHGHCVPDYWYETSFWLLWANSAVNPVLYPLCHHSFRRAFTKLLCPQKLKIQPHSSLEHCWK
Sodium-dependent dopamine transporter, sequence (Q01959 whole entry): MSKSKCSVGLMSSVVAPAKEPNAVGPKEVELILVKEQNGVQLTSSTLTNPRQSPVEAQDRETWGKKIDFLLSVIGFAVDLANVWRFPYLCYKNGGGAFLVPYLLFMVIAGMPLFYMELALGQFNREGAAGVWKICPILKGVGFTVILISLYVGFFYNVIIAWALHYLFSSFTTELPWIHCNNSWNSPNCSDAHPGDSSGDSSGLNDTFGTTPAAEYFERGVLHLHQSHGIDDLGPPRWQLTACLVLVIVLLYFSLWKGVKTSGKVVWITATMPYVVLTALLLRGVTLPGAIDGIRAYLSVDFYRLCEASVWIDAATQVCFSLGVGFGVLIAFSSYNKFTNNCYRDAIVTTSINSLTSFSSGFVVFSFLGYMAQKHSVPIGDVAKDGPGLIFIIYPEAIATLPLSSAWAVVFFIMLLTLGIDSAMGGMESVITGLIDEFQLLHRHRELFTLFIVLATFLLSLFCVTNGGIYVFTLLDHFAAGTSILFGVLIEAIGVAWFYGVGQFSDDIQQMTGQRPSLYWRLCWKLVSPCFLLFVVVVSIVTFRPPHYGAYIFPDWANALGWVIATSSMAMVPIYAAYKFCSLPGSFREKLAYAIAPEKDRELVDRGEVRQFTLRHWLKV
Mu-type opioid receptor, sequence (P35372 whole entry): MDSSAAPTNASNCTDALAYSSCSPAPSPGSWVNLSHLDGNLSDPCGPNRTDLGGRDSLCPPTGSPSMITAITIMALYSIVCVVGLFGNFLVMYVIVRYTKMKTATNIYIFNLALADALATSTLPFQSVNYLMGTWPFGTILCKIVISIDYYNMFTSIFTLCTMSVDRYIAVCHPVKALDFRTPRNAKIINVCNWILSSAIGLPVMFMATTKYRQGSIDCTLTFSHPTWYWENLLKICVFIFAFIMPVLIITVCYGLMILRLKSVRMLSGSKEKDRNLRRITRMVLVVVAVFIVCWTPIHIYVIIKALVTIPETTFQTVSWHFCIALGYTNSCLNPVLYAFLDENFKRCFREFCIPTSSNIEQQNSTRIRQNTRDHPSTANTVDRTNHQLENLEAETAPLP
5-hydroxytryptamine receptor 2B, sequence (P41595 whole entry): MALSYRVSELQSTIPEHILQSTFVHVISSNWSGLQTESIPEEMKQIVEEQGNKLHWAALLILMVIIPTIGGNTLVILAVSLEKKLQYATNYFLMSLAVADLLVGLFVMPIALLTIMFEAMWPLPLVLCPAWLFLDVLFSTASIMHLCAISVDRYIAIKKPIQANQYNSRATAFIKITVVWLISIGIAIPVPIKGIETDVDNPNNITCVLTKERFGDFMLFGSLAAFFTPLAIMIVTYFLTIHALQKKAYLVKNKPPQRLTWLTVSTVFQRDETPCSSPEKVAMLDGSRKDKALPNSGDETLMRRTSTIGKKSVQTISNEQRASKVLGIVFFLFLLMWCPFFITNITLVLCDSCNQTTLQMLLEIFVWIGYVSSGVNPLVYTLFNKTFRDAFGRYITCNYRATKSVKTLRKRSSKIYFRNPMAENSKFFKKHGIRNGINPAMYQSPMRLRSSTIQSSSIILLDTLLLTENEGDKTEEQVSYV

| Structure (SMILES) | AC50 [1] [µM] | AC50 [2] [µM] | AC50 (Mu-type opioid receptor) [µM] | AC50 [3] [µM] | AC50 (Progesterone receptor) [µM] | AC50 [4] [µM] | AC50 (Adenosine receptor A3) [µM] | AC50 (Histamine H3 receptor) [µM] | AC50 (Thromboxane A2 receptor) [µM] |
| --- | --- | --- | --- | --- | --- | --- | --- | --- | --- |
| CC1(C)CCC(C)(C)c2cc(NC(=O)c3ccc(C(=O)O)cc3)ccc21 [TAMIBAROTENE] | > 30 | > 30 | > 30 | > 10 | 29.2 | > 30 | 29.8 | > 30 | 9.94 |
| CC(=O)Nc1ccc(/C=N/NC(N)=S)cc1 [AMITHIOZONE] | > 30 | > 30 | > 30 |  | > 30 |  |  | > 30 | > 30 |
| O=NN(CCCl)C(=O)NCCCl [CARMUSTINE] | > 30 | > 30 | > 30 | > 30 |  | > 30 |  | > 30 |  |
| N[C@@H](Cc1ccc(N(CCCl)CCCl)cc1)C(=O)O | 16.9 | > 30 | 20.6 | > 30 | > 30 | > 30 | > 30 | > 30 | > 30 |
| C[C@H]1C[C@H]2[C@@H]3CCC4=CC(=O)C=C[C@]4(C)[C@@]3(F)[C@@H](O)C[C@]2(C)[C@@]1(O)C(=O)CO [BETAMETHASONE] | > 30 | > 30 | > 30 | > 30 | 11.4 | > 30 | > 30 | > 30 | > 30 |
| Cc1cccc(C)c1NC(=O)CN(CC(=O)O)CC(=O)O [LIDOFENIN] | > 30 | > 30 | > 30 | > 30 | > 30 | > 30 | > 30 | > 30 | > 30 |
| Cc1ccc(O)c([C@H](CCN(C(C)C)C(C)C)c2ccccc2)c1 [TOLTERODINE] | > 30 | > 30 | > 30 | 24.7 |  | > 30 |  | > 30 |  |
| NS(=O)(=O)c1cc2c(cc1Cl)NC(C(Cl)Cl)NS2(=O)=O (stereo not given) [TRICHLORMETHIAZIDE] | > 30 | > 30 | > 30 | > 30 | > 30 | > 30 | > 30 | > 30 | > 30 |
| O=c1[nH]c(=O)n([C@H]2C[C@H](O)[C@@H](CO)O2)cc1/C=C/Br [BRIVUDINE] | > 30 | > 30 | > 30 | > 30 | > 30 | > 30 | > 30 | > 30 | > 30 |
| CC(=O)OCC(=O)[C@@]1(OC(C)=O)[C@@H](C)C[C@H]2[C@@H]3C[C@H](F)C4=CC(=O)C=C[C@]4(C)[C@@]3(F)[C@@H](O)C[C@@]21C [DIFLORASONE DIACETATE] | > 30 | > 30 | > 30 | > 30 | 0.0193 | > 30 | > 30 | > 30 | > 30 |
| Cc1ncc(CO)c(CO)c1O [PYRIDOXINE] | > 30 | > 30 | > 30 | > 30 | > 30 | > 30 | > 30 | > 30 | > 30 |
| CCOC1O[C@H]([C@@H](COCc2ccccc2)OCc2ccccc2)[C@H](OCc2ccccc2)[C@H]1O (stereo not given in full) [TRIBENOSIDE] | > 30 | > 30 | > 30 | 15.2 | > 30 | > 30 | 14 | > 30 | 11.9 |
| CC1=C(/C=C/C(C)=C\C=C\C(C)=C\C(=O)O)C(C)(C)CCC1 [ALITRETINOIN] | > 30 | > 30 | > 30 | > 30 | > 30 | > 30 | > 30 | > 30 | > 30 |
| C#C[C@]1(OC(C)=O)CC[C@H]2[C@@H]3CCC4=CC(=O)CC[C@@H]4[C@H]3CC[C@@]21C [NORETHINDRONE ACETATE] | > 30 | > 30 | > 30 | 5.91 | 0.033 | > 30 | 0.838 | > 30 | 9.74 |
| N[C@@H](Cc1ccc(O)cc1)C(=O)O [TYROSINE] | > 30 | > 30 | > 30 | > 30 | > 30 | > 30 | > 30 | > 30 | > 30 |
| CC1(C)C[C@@H]1C(=O)N/C(=C\CCCCSC[C@H](N)C(=O)O)C(=O)O [CILASTATIN] | > 30 | > 30 | > 30 | > 30 | > 30 | > 30 |  | > 30 | > 30 |
| Nc1ccn(C[C@@H](CO)OCP(=O)(O)O)c(=O)n1 [CIDOFOVIR] | > 30 | > 30 | > 30 | > 30 | > 30 | > 30 | > 30 | > 30 | > 30 |
| CC(C)NC[C@H](O)COc1ccc(CCOCC2CC2)cc1 [LEVOBETAXOLOL] | > 30 | > 30 | > 30 | > 30 | > 30 | > 30 | > 30 | > 30 | > 30 |
| CCn1c(=O)c2c(nc(/C=C/c3ccc(OC)c(OC)c3)n2C)n(CC)c1=O [ISTRADEFYLLINE] | > 30 | > 30 | > 30 | > 30 | > 30 | > 30 | > 10 | > 30 | > 30 |
| CC1=C(/C=C/C(C)=C/C=C/C(C)=C\C(=O)O)C(C)(C)CCC1 [ISOTRETINOIN] | > 30 | > 30 | > 30 | > 30 | > 30 | > 30 | > 30 | > 30 | > 30 |
